According to publication PMC5353671, “A bacterial aromatic aldehyde dehydrogenase critical for the efficient catabolism of syringaldehyde” (Scientific Reports, 2017):

Experiments:
SLG_38120 = target: T1, SLG_38120 (Sphingobium sp. SYK-6, UniProt G2IRC1); test: HPLC, E. coli cell extract; type: biochemical; conditions: 100 μM substrate, 500 μM NAD+, 30 °C
T1 construct: gene feaB; coding region in pET21a(+), extract of E. coli BL21(DE3)
T1 sequence (G2IRC1 1-493): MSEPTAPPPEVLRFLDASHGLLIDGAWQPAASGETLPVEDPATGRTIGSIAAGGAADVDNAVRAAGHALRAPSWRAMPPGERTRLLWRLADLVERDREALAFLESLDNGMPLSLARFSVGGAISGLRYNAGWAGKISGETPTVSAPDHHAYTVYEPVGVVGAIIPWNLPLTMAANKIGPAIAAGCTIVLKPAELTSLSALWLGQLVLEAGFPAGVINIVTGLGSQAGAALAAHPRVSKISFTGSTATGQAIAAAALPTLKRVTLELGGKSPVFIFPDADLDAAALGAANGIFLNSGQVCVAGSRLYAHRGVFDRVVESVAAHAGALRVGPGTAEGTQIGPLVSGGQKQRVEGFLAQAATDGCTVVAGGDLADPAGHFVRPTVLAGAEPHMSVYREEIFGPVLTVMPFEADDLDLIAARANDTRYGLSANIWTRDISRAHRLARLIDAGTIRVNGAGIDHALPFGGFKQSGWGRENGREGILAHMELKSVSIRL

SLG_11410 = target: T2, SLG_11410 (Sphingobium sp. SYK-6, UniProt G2IPY8); test: HPLC, E. coli cell extract; type: biochemical; conditions: 100 μM substrate, 500 μM NAD+, 30 °C
T2 construct: coding region in pET21a(+), extract of E. coli BL21(DE3)
T2 sequence (G2IPY8 1-498): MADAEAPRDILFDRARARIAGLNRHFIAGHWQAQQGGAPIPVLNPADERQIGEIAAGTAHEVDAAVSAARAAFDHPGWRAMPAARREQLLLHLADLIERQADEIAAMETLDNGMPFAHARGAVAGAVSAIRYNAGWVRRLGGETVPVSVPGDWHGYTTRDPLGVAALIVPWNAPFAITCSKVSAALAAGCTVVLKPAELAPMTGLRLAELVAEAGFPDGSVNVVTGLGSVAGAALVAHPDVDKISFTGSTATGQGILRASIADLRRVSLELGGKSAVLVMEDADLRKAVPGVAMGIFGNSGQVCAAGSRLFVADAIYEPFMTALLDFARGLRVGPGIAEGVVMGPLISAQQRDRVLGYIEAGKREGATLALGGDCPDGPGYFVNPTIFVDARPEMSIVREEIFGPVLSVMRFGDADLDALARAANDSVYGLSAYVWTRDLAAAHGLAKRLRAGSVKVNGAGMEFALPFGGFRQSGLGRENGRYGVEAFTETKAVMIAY

COc1cc(C=O)cc(OC)c1O [syringaldehyde]
specific activity (SLG_38120): All these aromatic ALDH gene products converted SN into syringate | specific activity (SLG_11410): All these aromatic ALDH gene products converted SN into syringate
